Test results published in US7858125B2, “Multi-component biocide composition for wood protection” (priority 2006, dated 2010).
Where two headings read alike, the source gives them in different places.

Experiments:
A. niger = experiment: Mold resistance of treated wood stakes (ASTM D4445-91), A. niger; format: cell-based, Aspergillus niger 2.242
Protocol: (§1) The biocide compositions were first tested for the efficacy in preventing mold fungal growth. […] The mold fungi were first prepared by growing the various mold fungi species on 2% malt agar. […] Spore suspensions were transferred to a spray bottle and diluted to 100 milliliters with DI water. The spray bottle was adjusted to deliver 1 milliliter inoculum/spray.
(§2) The biocide compositions were tested for the efficacy in preventing mold fungal growth and compared to the abilities of the commercially used preservatives, fungicides, extracts, and pharmaceuticals in preventing mold fungal growth.
(§3) Specimens (7×20 millimeters cross section by 7 centimeters long) were cut from unseasoned southern yellow pine mill ends from a Mississippi sawmill and stored at 0° C. […] Southern yellow pine oriented strand board (OSB) specimens (11×20 millimeters cross section by 7 centimeters long) were cut from a full sheet of OSB and conditioned to 70% relative humidity. […] Untreated stakes were dipped in DI water and served as Control A for water-based test chemicals. […]
(§4) The biocide compositions were first tested for the efficacy in preventing mold fungal growth. […]

P. chrysogenum = experiment: Mold resistance of treated wood stakes (ASTM D4445-91), P. chrysogenum; format: cell-based, Penicillium chrysogenum PH02
Protocol: as §1, §2, §3, §4

T. viride = experiment: Mold resistance of treated wood stakes (ASTM D4445-91), T. viride; format: cell-based, Trichoderma viride ATCC 20476
Protocol: as §1, §2, §3, §4

[1] = Example 2, dip-treated unseasoned southern yellow pine, 4 weeks, scale 0-5 (5 = 100% coverage)

Compound	Mold Resistance Average Rating, A. niger (A. niger; [1])	Mold Resistance Average Rating, P. chrysogenum (P. chrysogenum; [1])	Mold Resistance Average Rating, T. viride (T. viride; [1])	Mold Resistance Average Rating, A. niger (A. niger)	Mold Resistance Average Rating, P. chrysogenum (P. chrysogenum)	Mold Resistance Average Rating, T. viride (T. viride)
O=C([O-])c1ccccc1.[Na+] [Sample 13, Sodium benzoate]	2.9	2.4	3.1			
O=C([O-])c1ccccc1.[Na+] [Sample 14, Sodium benzoate]	1.7	0.0	1.0			
O=C([O-])c1ccccc1.[Na+] [Sample 15, Sodium benzoate]	0.4	0.0	0.4			
O=C([O-])c1ccccc1.[Na+] [Sample 16, Sodium benzoate]	0.0	0.0	0.7			
CCC(=O)[O-].CCC(=O)[O-].[Ca+2] [Sample 17, Calcium propionate]	5.0	4.9	4.6			
CCC(=O)[O-].CCC(=O)[O-].[Ca+2] [Sample 18, Calcium propionate]	5.0	5.0	4.7			
CCC(=O)[O-].CCC(=O)[O-].[Ca+2] [Sample 19, Calcium propionate]	0.9	2.0	3.3			
C/C=C/C=C/C(=O)[O-].[K+] [Sample 20, Potassium sorbate]				5.0	5.0	4.9
C/C=C/C=C/C(=O)[O-].[K+] [Sample 21, Potassium sorbate]				2.6	2.6	2.9
C/C=C/C=C/C(=O)[O-].[K+] [Sample 22, Potassium sorbate]				0.0	0.0	0.7
C/C=C/C=C/C(=O)[O-].[K+] [Sample 23, Potassium sorbate]				0.0	0.0	1.0
C/C=C/C=C/C(=O)[O-].[K+] [Sample 24, Potassium sorbate]				0.0	1.7	0.0
O=C[O-].[Na+] [Sample 25, Sodium formate]	5.0	4.6	4.3			
O=C[O-].[Na+] [Sample 26, Sodium formate]	5.0	4.7	4.1			
O=C[O-].[Na+] [Sample 27, Sodium formate]	4.7	3.3	4.0			
O=NO [Sample 28, Sodium nitrite]	5.0	4.9	5.0			
CC(C)c1cccc(O)c(=O)c1 [Sample 30, Thujaplicin (isopropyltropolone)]	0.0	0.0	0.0			
Clc1ccc(COC(Cn2ccnc2)c2ccc(Cl)cc2Cl)c(Cl)c1 (stereo not drawn) [Sample 34, Miconazole]	0.0	0.0	0.0			
OC(Cn1cncn1)(Cn1cncn1)c1ccc(F)cc1F [Sample 39, Difluconazole]	5.0	4.7	5.0			
Clc1ccccc1C(c1ccccc1)(c1ccccc1)n1ccnc1 [Sample 40, Clotrimazole]	5.0	3.4	3.7			
C[C@@H](c1ncncc1F)[C@](O)(Cn1cncn1)c1ccc(F)cc1F [Sample 41, Voriconazole]	0.0	0.0	2.4			
C[C@@H](c1ncncc1F)[C@](O)(Cn1cncn1)c1ccc(F)cc1F [Sample 42, Voriconazole]	0.0	0.0	1.3			
C[C@@H](c1ncncc1F)[C@](O)(Cn1cncn1)c1ccc(F)cc1F [Sample 43, Voriconazole]	0.1	0.0	0.4			
C[C@@H](c1ncncc1F)[C@](O)(Cn1cncn1)c1ccc(F)cc1F [Sample 44, Voriconazole]	0.0	0.0	0.1			
c1ccc2[nH]c(-c3cscn3)nc2c1 [Sample 45, Thiabendazole]	0.0	0.0	2.5			
c1ccc2[nH]c(-c3cscn3)nc2c1 [Sample 46, Thiabendazole]	0.0	0.0	0.0			
c1ccc2[nH]c(-c3cscn3)nc2c1 [Sample 47, Thiabendazole]	0.0	0.0	0.0			
Thujaplicin (isopropyltropolone) [Sample 29]	5.0	0.0	1.0			
